Reference: patent publication US20240166635A1, “AMINOHETEROARYL KINASE INHIBITORS” (Anrui Biomedical Technology (Guangzhou) Co.,Ltd., priority 2020, published 2024)

Experiments:
Type in all cases: biochemical
CDK1/CyclinB = CDK1/CyclinB (Homo sapiens (Human), UniProt P06493); test: CDK1/CyclinB kinase inhibitory activity (Caliper mobility shift); details: read-out: CDK1/Cyclin B1 IC50
CDK2/CyclinE1 = CDK2/CyclinE1 (Homo sapiens (Human), UniProt P24941); test: CDK2/CyclinE1 kinase inhibitory activity (Caliper mobility shift); details: read-out: CDK2/Cyclin El IC50
CDK9/CyclinT1 = CDK9/CyclinT1 (Homo sapiens (Human), UniProt P50750); test: CDK9/CyclinT1 kinase inhibitory activity (Caliper mobility shift); details: read-out: CDK9/Cyclin T1 IC50
Chain of CDK9/CyclinT1 (P50750 whole entry): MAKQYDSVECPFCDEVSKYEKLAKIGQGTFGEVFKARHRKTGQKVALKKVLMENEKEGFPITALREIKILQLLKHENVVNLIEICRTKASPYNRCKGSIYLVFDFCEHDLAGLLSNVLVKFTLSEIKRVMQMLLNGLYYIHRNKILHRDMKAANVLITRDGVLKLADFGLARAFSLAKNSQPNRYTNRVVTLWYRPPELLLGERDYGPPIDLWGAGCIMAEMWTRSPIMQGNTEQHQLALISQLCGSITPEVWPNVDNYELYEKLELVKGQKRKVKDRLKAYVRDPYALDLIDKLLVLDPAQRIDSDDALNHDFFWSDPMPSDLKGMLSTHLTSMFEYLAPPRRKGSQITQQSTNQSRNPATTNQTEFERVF
Chain of CDK9/CyclinT1 (O60563 whole entry partner): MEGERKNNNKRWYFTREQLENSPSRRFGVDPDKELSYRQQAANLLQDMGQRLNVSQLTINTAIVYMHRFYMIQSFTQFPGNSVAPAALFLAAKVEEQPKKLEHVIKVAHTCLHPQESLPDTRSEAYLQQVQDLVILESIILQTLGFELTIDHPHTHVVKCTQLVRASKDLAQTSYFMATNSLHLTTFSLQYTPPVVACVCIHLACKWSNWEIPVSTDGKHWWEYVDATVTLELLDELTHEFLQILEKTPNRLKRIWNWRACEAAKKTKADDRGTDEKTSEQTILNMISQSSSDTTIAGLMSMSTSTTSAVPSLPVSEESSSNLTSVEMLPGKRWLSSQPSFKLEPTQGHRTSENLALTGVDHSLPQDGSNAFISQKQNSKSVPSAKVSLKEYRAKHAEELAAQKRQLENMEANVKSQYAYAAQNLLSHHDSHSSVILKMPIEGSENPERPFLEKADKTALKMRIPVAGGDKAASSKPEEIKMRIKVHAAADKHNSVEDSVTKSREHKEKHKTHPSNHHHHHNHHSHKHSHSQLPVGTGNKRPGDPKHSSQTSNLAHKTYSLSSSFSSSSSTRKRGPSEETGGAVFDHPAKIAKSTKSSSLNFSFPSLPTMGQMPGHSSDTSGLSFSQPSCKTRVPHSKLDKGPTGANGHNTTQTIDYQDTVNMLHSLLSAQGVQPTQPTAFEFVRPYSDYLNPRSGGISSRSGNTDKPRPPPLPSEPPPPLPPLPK

Chain of CDK1/CyclinB (P06493 whole entry): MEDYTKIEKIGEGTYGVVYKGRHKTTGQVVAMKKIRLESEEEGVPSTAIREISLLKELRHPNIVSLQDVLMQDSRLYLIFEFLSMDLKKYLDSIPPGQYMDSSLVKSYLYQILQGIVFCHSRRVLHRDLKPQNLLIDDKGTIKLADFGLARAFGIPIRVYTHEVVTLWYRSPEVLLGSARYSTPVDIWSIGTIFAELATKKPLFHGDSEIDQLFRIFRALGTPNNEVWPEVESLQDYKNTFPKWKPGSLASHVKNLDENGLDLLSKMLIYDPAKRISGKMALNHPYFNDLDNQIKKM
Chain of CDK1/CyclinB (P14635 whole entry partner): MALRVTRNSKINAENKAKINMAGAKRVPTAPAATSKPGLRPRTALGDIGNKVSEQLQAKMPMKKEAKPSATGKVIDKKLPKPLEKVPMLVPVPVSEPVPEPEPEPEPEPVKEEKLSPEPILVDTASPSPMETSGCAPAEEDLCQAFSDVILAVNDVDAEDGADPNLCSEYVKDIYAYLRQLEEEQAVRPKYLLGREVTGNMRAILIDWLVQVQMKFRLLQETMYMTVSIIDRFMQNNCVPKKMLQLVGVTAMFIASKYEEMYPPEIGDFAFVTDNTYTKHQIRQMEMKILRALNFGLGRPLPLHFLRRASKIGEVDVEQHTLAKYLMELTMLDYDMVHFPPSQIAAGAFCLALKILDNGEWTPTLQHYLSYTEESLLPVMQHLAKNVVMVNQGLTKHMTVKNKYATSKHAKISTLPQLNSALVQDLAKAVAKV

| SMILES | IC50 (CDK1/CyclinB) | IC50 (CDK2/CyclinE1) | IC50 (CDK9/CyclinT1) |
| --- | --- | --- | --- |
| C=C(F)c1cnc(Nc2ccc(S(=O)(=O)NC)cc2)nc1O[C@@H]1CCC[C@@H]1O (single isomer, unassigned) [Example 135b, cis-4-((5-(1-fluorovinyl)-4-((2-hydroxycyclopentyl)oxy)pyrimidin-2-yl)amino)-N-(methyl-d3)benzenesulfonamide] |  |  | 100 to 1000 nM |
| N#Cc1cnc(Nc2ccc(S(N)(=O)=O)cc2)nc1N1CCC[C@@H](CO)C1 [Example 79] | 100 to 1000 nM | 10 to 100 nM | 100 to 1000 nM |
| N#Cc1cnc(Nc2ccc(S(N)(=O)=O)cc2)nc1OCC1(O)CCCCC1 [Example 16] | 100 to 1000 nM | 10 to 100 nM |  |
| NS(=O)(=O)c1ccc(Nc2ncc(C(F)(F)F)c(OC3CCOCC3O)n2)cc1 (single isomer, unassigned) [Example 114b] | 100 to 1000 nM | 10 to 100 nM | 100 to 1000 nM |
| CO[C@H]1CCCN(c2nc(Nc3ccc(S(N)(=O)=O)cc3)ncc2C#N)C1 [Example 80] | 100 to 1000 nM | 10 to 100 nM |  |
| N#Cc1cnc(Nc2ccc(S(N)(=O)=O)cc2)nc1OCC1CCCCC1 [Example 13] | 10 to 100 nM | 10 to 100 nM |  |
| N#Cc1cnc(Nc2ccc(S(N)(=O)=O)cc2)nc1N1CCCC(c2ccccc2)C1 (racemic) [Example 84] | 10 to 100 nM | 10 to 100 nM |  |
| CC1(O)CCCC1Oc1nc(NC2CCN(S(=O)(=O)CF)CC2)ncc1C#N (single isomer, unassigned) [Example 37b] | 100 to 1000 nM | 10 to 100 nM | ≥ 1000 nM |
| O=S(=O)(NC1CCOCC1)c1ccc(Nc2ncc(Cl)c(O[C@@H]3CCC[C@@H]3O)n2)cc1 (single isomer, unassigned) [Example 130b, cis-4-((5-chloro-4-((2-hydroxycyclopentyl)oxy)pyrimidin-2-yl)amino)-N-(tetrahydro-2H-pyran-4-yl)benzenesulfonamide] | 10 to 100 nM | 10 to 100 nM | 100 to 1000 nM |
| [2H]C([2H])([2H])NS(=O)(=O)c1ccc(Nc2ncc(CC)c(OC3CCCC3O)n2)cc1 (single isomer, unassigned) [Example 149b] | 100 to 1000 nM | 10 to 100 nM | 100 to 1000 nM |
| [2H]C([2H])([2H])NS(=O)(=O)c1ccc(Nc2ncc(C(F)(F)F)c(O[C@H]3CCOC[C@H]3O)n2)cc1 (single isomer, unassigned) [Example 100b, cis-4-((4-((3-hydroxytetrahydro-2H-pyran-4-yl)oxy)-5-(trifluoromethyl)pyrimidin-2-yl)amino)-N-(methyl-d3)benzenesulfonamide] | 100 to 1000 nM | 10 to 100 nM |  |
| [2H]C([2H])([2H])NS(=O)(=O)c1ccc(Nc2ncc(CC)c(OC3COCC3(C)O)n2)cc1 (single isomer, unassigned) [Example 150b] | ≥ 1000 nM | 100 to 1000 nM |  |
| N#Cc1cnc(Nc2ccc(S(N)(=O)=O)cc2)nc1OC1CCCC(O)C1 (single isomer, unassigned) [Example 21b] | 100 to 1000 nM | 10 to 100 nM | 100 to 1000 nM |
| CNS(=O)(=O)c1ccc(Nc2ncc(C(F)(F)F)c(OC3CCOCC3O)n2)cc1 (single isomer, unassigned) [Example 116b] | 100 to 1000 nM | 10 to 100 nM | ≥ 1000 nM |
| Cn1cc(S(=O)(=O)N2CCC(Nc3ncc(Br)c(OC4CCCCC4O)n3)CC2)cn1 (single isomer, unassigned) [Example 144a] | 100 to 1000 nM | 10 to 100 nM | ≥ 1000 nM |
| N#Cc1cnc(Nc2ccc(S(=O)(=O)NC3CC(F)C3)cc2)nc1OC1CCCCC1O (single isomer, unassigned) [Example 31b] | 100 to 1000 nM | 10 to 100 nM | ≥ 1000 nM |
| [2H]C([2H])([2H])NS(=O)(=O)c1ccc(Nc2ncc(C(=C)F)c(O[C@@H]3CCC[C@@H]3O)n2)cc1 (single isomer, unassigned) [Example 135b, cis-4-((5-(1-fluorovinyl)-4-((2-hydroxycyclopentyl)oxy)pyrimidin-2-yl)amino)-N-(methyl-d3)benzenesulfonamide] | 100 to 1000 nM | 10 to 100 nM |  |
| [2H]C([2H])([2H])NS(=O)(=O)c1ccc(Nc2ncc(C(F)(F)F)c(OC3COCCC3O)n2)cc1 (single isomer, unassigned) [Example 117b] | 100 to 1000 nM | 10 to 100 nM | ≥ 1000 nM |
| Cc1cnc(Nc2ccc(S(N)(=O)=O)cc2)nc1O[C@@H]1CCC[C@@H]1O (single isomer, unassigned) [Example 132b, cis-4-((4-((2-hydroxycyclopentyl)oxy)-5-methylpyrimidin-2-yl)amino)benzenesulfonamide] | 100 to 1000 nM | 10 to 100 nM | 100 to 1000 nM |
| [2H]C([2H])([2H])NS(=O)(=O)c1ccc(Nc2ncc(C(F)(F)F)c(O[C@H]3CCOC[C@H]3O)n2)c(F)c1 (single isomer, unassigned) [Example 101b, cis-3-fluoro-4-((4-((3-hydroxytetrahydro-2H-pyran-4-yl)oxy)-5-(trifluoromethyl)pyrimidin-2-yl)amino)-N-(methyl-d3)benzenesulfonamide] |  | 10 to 100 nM |  |
| CNS(=O)(=O)c1ccc(Nc2ncc(C(F)(F)F)c(O[C@H]3CCOC[C@H]3O)n2)cc1 (single isomer, unassigned) [Example 100b, cis-4-((4-((3-hydroxytetrahydro-2H-pyran-4-yl)oxy)-5-(trifluoromethyl)pyrimidin-2-yl)amino)-N-(methyl-d3)benzenesulfonamide] |  |  | 100 to 1000 nM |
| CC1(COc2nc(NC3CCN(S(=O)(=O)c4cn[nH]c4)CC3)ncc2C#N)CCCC1 [Example 8, 2-((1-((1H-pyrazol-4-yl)sulfonyl)piperidin-4-yl)amino)-4-((1-methylcyclopentyl)methoxy)pyrimidine-5-carbonitrile] |  |  | 100 to 1000 nM |
| CS(=N)(=O)c1ccc(Nc2ncc(C#N)c(N3CCCCC3)n2)cc1 (stereo not drawn) [Example 90] | 100 to 1000 nM | 10 to 100 nM |  |

Second part, the molecule after the results:

| IC50 (CDK1/CyclinB) | IC50 (CDK2/CyclinE1) | IC50 (CDK9/CyclinT1) | SMILES |
| --- | --- | --- | --- |
| 10 to 100 nM | < 10 nM | 10 to 100 nM | C[C@@H]1CC[C@H](O)CN1c1nc(Nc2ccc(S(N)(=O)=O)cc2)ncc1C#N [Example 77] |
| 10 to 100 nM | < 10 nM | 100 to 1000 nM | CC(C)NS(=O)(=O)c1ccc(Nc2ncc(C#N)c(OC3CCCCC3O)n2)cc1 (single isomer, unassigned) [Example 30a] |
| 100 to 1000 nM | < 10 nM | 100 to 1000 nM | CCc1cnc(Nc2ccc(S(N)(=O)=O)cc2)nc1O[C@@H]1CCC[C@@H]1O (single isomer, unassigned) [Example 133b, cis-4-((5-ethyl-4-((2-hydroxycyclopentyl)oxy)pyrimidin-2-yl)amino)benzenesulfonamide] |
| 10 to 100 nM | < 10 nM | 100 to 1000 nM | NS(=O)(=O)c1ccc(Nc2ncc(Cl)c(OC3CCCC3O)n2)cc1 (single isomer, unassigned) [Example 136b] |
| 10 to 100 nM | < 10 nM | 100 to 1000 nM | N#Cc1cnc(Nc2ccc(S(N)(=O)=O)cc2)nc1OCC1CCCC1O (single isomer, unassigned) [Example 19a] |
| 100 to 1000 nM | < 10 nM | 100 to 1000 nM | NS(=O)(=O)N1CCC(Nc2ncc(C(F)(F)F)c(OC3CCCCCC3O)n2)CC1 (single isomer, unassigned) [Example 122a] |
| 100 to 1000 nM | 10 to 100 nM | ≥ 1000 nM | CS(=O)(=O)N1CCC(Nc2ncc(Br)c(OC3CCCCCC3O)n2)CC1 (single isomer, unassigned) [Example 145a] |
| 10 to 100 nM | < 10 nM | 100 to 1000 nM | CC(C)NS(=O)(=O)c1ccc(Nc2ncc(C#N)c(OC3CCCC3(C)O)n2)cc1 (single isomer, unassigned) [Example 35b] |
| 100 to 1000 nM | < 10 nM | 100 to 1000 nM | CC(C)NS(=O)(=O)c1ccc(Nc2ncc(C#N)c(OC3CCC(O)C3)n2)cc1 (single isomer, unassigned) [Example 29a] |
| 10 to 100 nM | < 10 nM | 100 to 1000 nM | O=S(=O)(NC1CC1)c1ccc(Nc2ncc(C(F)(F)F)c(OC3CCCC3O)n2)cc1 (single isomer, unassigned) [Example 107b] |
| 10 to 100 nM | < 10 nM | 100 to 1000 nM | N#Cc1cnc(Nc2ccc(S(N)(=O)=O)cc2)nc1N1CCC[C@H](CO)C1 [Example 78] |
| 100 to 1000 nM | < 10 nM | ≥ 1000 nM | [2H]C([2H])([2H])NS(=O)(=O)c1ccc(Nc2ncc(C#N)c(OC3CCCOCC3)n2)cc1 (single isomer, unassigned) [Example 33b] |
| 10 to 100 nM | < 10 nM | 100 to 1000 nM | NS(=O)(=O)c1ccc(Nc2ncc(Br)c(OC3CCCC3O)n2)cc1 (single isomer, unassigned) [Example 141b] |
| 10 to 100 nM | < 10 nM | 100 to 1000 nM | CNS(=O)(=O)c1ccc(Nc2ncc(Br)c(OC3CCCC3O)n2)cc1 (single isomer, unassigned) [Example 142b] |
| 10 to 100 nM | < 10 nM | 100 to 1000 nM | NS(=O)(=O)c1ccc(Nc2ncc(C(F)(F)F)c(O[C@@H]3CCC[C@@H]3O)n2)cc1 (single isomer, unassigned) [Example 99b, cis-4-((4-((2-hydroxycyclopentyl)oxy)-5-(trifluoromethyl)pyrimidin-2-yl)amino)benzenesulfonamide] |
| 100 to 1000 nM | < 10 nM | ≥ 1000 nM | CNS(=O)(=O)c1ccc(Nc2ncc(C#N)c(OC3CCCC3(C)O)n2)cc1 (single isomer, unassigned) [Example 34b] |
| 10 to 100 nM | < 10 nM | 100 to 1000 nM | CC(C)NS(=O)(=O)c1ccc(Nc2ncc(C(F)(F)F)c(OC3CCCC3O)n2)cc1 (single isomer, unassigned) [Example 106b] |
| 10 to 100 nM | < 10 nM |  | C[C@H]1CCCCN1c1nc(Nc2ccc(S(N)(=O)=O)cc2)ncc1F [Example 88] |
| 10 to 100 nM | < 10 nM |  | C[C@@H]1CCCCN1c1nc(Nc2ccc(S(N)(=O)=O)cc2)ncc1F [Example 87] |
